Counter-ions that a name gives are not always drawn.

This experiment deals with Pseudomonas aeruginosa PAM1001. Nature of the experiment: microbe, parasite or virus in culture. It counts as cell-based. The following applies: Pseudomonas aeruginosa, PAM1001, read-out: Inhibition (%) of growth of P. aeruginosa PAM1001. Summed up:
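Growth inhibition is expressed as a percentage relative to a control culture containing 0.25 microg/mL levofloxacin but no EPI. Cultures (MHB, initial 1×10^6 CFU/mL) with levofloxacin and a range of EPI levels were monitored kinetically at 650 nm during 18 h incubation at 37° C.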
As to `NCC(=O)N[C@H]1CN[C@H](C(=O)Nc2ccc(Nc3ccccc3)cc2)C1` [Compound D304, trans-4-Glycylamino-L-Proline 4-Phenylamino-phenylamide Dihydrochloride], the inhibition at 2.5 µg/mL was determined as 17%, the inhibition at 5 µg/mL came to 15%, the inhibition at 10 µg/mL amounted to 10% and the inhibition at 20 µg/mL was -11%. Besides, the inhibition at 40 µg/mL turned out to be 100%.
For the compound `NCC(=O)N[C@H]1CN[C@H](C(=O)Nc2ccc(Cc3ccccc3)cc2)C1` [Compound D308, trans-4-Glycylamino-L-Proline 4-Benzylphenylamide Dihydrochloride], the inhibition at 2.5 µg/mL is 16%, the inhibition at 5 µg/mL stood at 14%, the inhibition at 10 µg/mL amounted to 98% and the inhibition at 20 µg/mL is 100%. Further, the inhibition at 40 µg/mL was 100%.
As to `CC(C)(C)c1ccc(NC(=O)[C@@H]2C[C@@H](NC(=O)CN)CN2)cc1` [Compound D313, trans-4-Glycylamino-L-Proline 4-tert-Butylphenyl-amide Dihydrochloride], the inhibition at 2.5 µg/mL came out at 17%, the inhibition at 5 µg/mL came out at 17%, the inhibition at 10 µg/mL is 96% and the inhibition at 20 µg/mL is 99%. The inhibition at 40 µg/mL was 99%.
Consider `NCC(=O)N[C@H]1CN[C@H](C(=O)Nc2ccc(OCc3ccccc3)cc2)C1` [Compound D317, trans-4-Glycylamino-L-Proline 4-Benzyloxyphenyl-amide Dihydrochloride], for which the inhibition at 2.5 µg/mL is 20%, the inhibition at 5 µg/mL stood at 18%, the inhibition at 10 µg/mL is -1% and the inhibition at 20 µg/mL turned out to be 99%. For the same compound, the inhibition at 40 µg/mL was found to be 99%.
For `NCC(=O)N[C@H]1CN[C@H](C(=O)Nc2cccc(OCc3ccccc3)c2)C1` [Compound D318, trans-4-Glycylamino-L-Proline 3-Benzyloxyphenyl-amide Dihydrochloride], the inhibition at 2.5 µg/mL came to 17%, the inhibition at 5 µg/mL stood at 16%, the inhibition at 10 µg/mL turned out to be 19% and the inhibition at 20 µg/mL turned out to be 99%. Besides, the inhibition at 40 µg/mL was determined as 99%.
Consider `NCC(=O)N[C@H]1CN[C@H](C(=O)Nc2ccc(CSc3ccccc3)cc2)C1` [Compound D319, trans-4-Glycylamino-L-Proline 4-(Phenylthiomethyl)-phenylamide Dihydrochloride], for which the inhibition at 2.5 µg/mL turned out to be 19%, the inhibition at 5 µg/mL turned out to be 18%, the inhibition at 10 µg/mL came to 99% and the inhibition at 20 µg/mL amounted to 100%. Besides, the inhibition at 40 µg/mL turned out to be 100%.
Turning to `NCC(=O)N[C@H]1CN[C@H](C(=O)Nc2ccc(SCc3ccccc3)cc2)C1` [Compound D320, trans-4-Glycylamino-L-Proline 4-Benzylthiophenyl-amide Dihydrochloride], the inhibition at 2.5 µg/mL came to 23%, the inhibition at 5 µg/mL was 21%, the inhibition at 10 µg/mL came out at 97% and the inhibition at 20 µg/mL is 100%. Further, the inhibition at 40 µg/mL amounted to 100%.
With `NC[C@H](O)C(=O)N[C@H]1CN[C@H](C(=O)Nc2ccc(Oc3ccccc3)cc2)C1` [Compound D321, trans-4-((S)-3-Amino-2-Hydroxypropionylamino)-L-Proline 4-Phenoxyphenylamide Dihydrochloride], the inhibition at 2.5 µg/mL stood at 15%, the inhibition at 5 µg/mL is 14%, the inhibition at 10 µg/mL worked out at 84% and the inhibition at 20 µg/mL came out at 100%. Further, the inhibition at 40 µg/mL came to 100%.
`NCCS(=O)(=O)N[C@H]1CN[C@H](C(=O)Nc2ccc(Oc3ccccc3)cc2)C1` [Compound D322, trans-4-(2-Aminoethylsulfonylamino)-L-Proline 4-Phenoxyphenylamide Dihydrochloride]: the inhibition at 2.5 µg/mL is 19%, the inhibition at 5 µg/mL amounted to 19%, the inhibition at 10 µg/mL was 17% and the inhibition at 20 µg/mL worked out at 99%. Moreover, the inhibition at 40 µg/mL came to 100%.
As to `N[C@H]1CCN[C@H](C(=O)Nc2ccc(Oc3ccccc3)cc2)C1` [Compound D329, trans-4-Amino-L-Pipecolinoyl-(4-Phenoxyphenyl)-amide Dihydrochloride], the inhibition at 2.5 µg/mL was 20%, the inhibition at 5 µg/mL came to 20%, the inhibition at 10 µg/mL stood at 17% and the inhibition at 20 µg/mL is 16%. In addition, the inhibition at 40 µg/mL was 97%.
As to `NCC(=O)N[C@H]1CCN[C@H](C(=O)Nc2ccc(Oc3ccccc3)cc2)C1` [Compound D330, trans-4-Glycylamino-L-Pipecolinoyl 4-Phenoxy-phenylamide Dihydrochloride], the inhibition at 2.5 µg/mL is 19%, the inhibition at 5 µg/mL was 18%, the inhibition at 10 µg/mL worked out at 12% and the inhibition at 20 µg/mL came to 100%. In addition, the inhibition at 40 µg/mL came out at 100%.
Take `NC[C@H]1CN[C@H](C(=O)Nc2ccc(Oc3ccccc3)cc2)C1` [Compound D331, trans-4-Aminomethyl-L-Proline 4-Phenoxyphenyl-amide Dihydrochloride]: the inhibition at 2.5 µg/mL was determined as 17%, the inhibition at 5 µg/mL was 9%, the inhibition at 10 µg/mL is -10% and the inhibition at 20 µg/mL was found to be 100%. Also, the inhibition at 40 µg/mL is 100%.
Consider `NCC(=O)N[C@H]1CN[C@H](C(=O)N2CCN(c3cccc(Cl)c3)CC2)C1` [Compound D401, 1-(trans-4-Glycylamino-L-Prolyl)-4-(3-Chlorophenyl)-piperazine Dihydrochloride], for which the inhibition at 2.5 µg/mL is 21%, the inhibition at 5 µg/mL turned out to be 19%, the inhibition at 10 µg/mL turned out to be 15% and the inhibition at 20 µg/mL was 4%. Also, the inhibition at 40 µg/mL is 96%.
On to `Cc1c(Cl)cccc1N1CCN(C(=O)[C@H]2C[C@H](NC(=O)[C@@H](O)CN)CN2)CC1` [Compound D402, 1-[trans-4-((2S)-3-Amino-2-Hydroxypropionylamino)-D-Prolyl]-4-(3-Chloro-2-Methylphenyl)piperazine Dihydrochloride], for which the inhibition at 2.5 µg/mL came to 19%, the inhibition at 5 µg/mL was 71%, the inhibition at 10 µg/mL was found to be 99% and the inhibition at 20 µg/mL amounted to 100%. Also, the inhibition at 40 µg/mL came to 101%.
On the same counts, the results for `NCC(=O)N[C@H]1CN[C@H](C(=O)N2CCN(c3ccccc3Cl)CC2)C1` [Compound D405, 1-(trans-4-Glycylamino-L-Prolyl)-4-(2-Chlorophenyl)-piperazine Dihydrochloride] are 20%, 19%, 16%, -11% and 58%.
Turning to `Cc1c(Cl)cccc1N1CCN(C(=O)[C@@H]2C[C@@H](CN)CN2)CC1` [Compound D407, 1-(trans-4-Aminomethyl-L-Prolyl)-4-(3-Chloro-2-methylphenyl)piperazine Dihydrochloride], the inhibition at 2.5 µg/mL was determined as 100%, the inhibition at 5 µg/mL is 100%, the inhibition at 10 µg/mL came to 99% and the inhibition at 20 µg/mL amounted to 99%. Moreover, the inhibition at 40 µg/mL was determined as 98%.

Broadly, the inhibition is the change of the read-out against control, counted positive when it falls.
